{"source": "the NIST ThermoML archive (doi:10.1021/je700033y)", "conditions": "Liquid, High pressure cell", "note": "± gives the expanded uncertainty stated by the source.", "data": [{"smiles": "CO", "note": "[methanol]", "values": [{"measurement": "vapor or sublimation pressure", "setting": "353.1 K", "value": "181 ± 3", "unit": "kPa"}, {"measurement": "vapor or sublimation pressure", "setting": "393.1 K", "value": "635 ± 3", "unit": "kPa"}]}]}
